#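 Grown in 96-well plates, cells were treated for 48 hours with each compound at five concentrations. Insufficient inhibition: endpoint recorded as highest concentration tested. At the GI50, growth is halved.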 Calls of active or inactive are those of the source. Cut-off read from the data, not from the text of the source: active = GI50 up to about 1.1 µM and inactive = higher.
# Experiments:
# Assay in all cases: NCI tumour cell line growth inhibition, 48 h
# HL-60 = system: HL-60
# CCRF-CEM = system: CCRF-CEM
# UACC-257 = system: UACC-257
# OVCAR-5 = system: OVCAR-5
# MOLT-4 = system: MOLT-4
# T47D = system: T47D
# MCF7 = system: MCF7
# SK-MEL-2 = system: SK-MEL-2
# ACHN = system: ACHN
# MDA-MB-435 = system: MDA-MB-435
# SK-OV-3 = system: SK-OV-3
# MDA-MB-231 = system: MDA-MB-231
# Malme-3M = system: Malme-3M
# IGROV-1 = system: IGROV-1
# HOP-92 = system: HOP-92
# HCC 2998 = system: HCC 2998
# NCI-H226 = system: NCI-H226
# OVCAR-4 = system: OVCAR-4
# SK-MEL-28 = system: SK-MEL-28
# U-251 = system: U-251
Structure (SMILES),GI50 (HL-60),GI50 (CCRF-CEM),GI50 (UACC-257),GI50 (OVCAR-5),GI50 (MOLT-4),GI50 (T47D),GI50 (MCF7),GI50 (SK-MEL-2),GI50 (ACHN),GI50 (MDA-MB-435),GI50 (SK-OV-3),GI50 (MDA-MB-231),GI50 (Malme-3M),GI50 (IGROV-1),GI50 (HOP-92),GI50 (HCC 2998),GI50 (NCI-H226),GI50 (OVCAR-4),GI50 (SK-MEL-28),GI50 (U-251)
Cc1ccc2[nH]c3[nH]c(=S)[nH]c(=O)c3c2c1,> 100 µM (inactive),> 100 µM (inactive),> 100 µM (inactive),> 100 µM (inactive),97.5 µM (inactive),> 100 µM (inactive),> 100 µM (inactive),> 100 µM (inactive),> 100 µM (inactive),> 100 µM (inactive),> 100 µM (inactive),> 100 µM (inactive),> 100 µM (inactive),> 100 µM (inactive),> 100 µM (inactive),> 100 µM (inactive),> 100 µM (inactive),–,–,–
CCN1C(=S)n2cccc2C1CC(=O)c1ccc(Cl)cc1 (configuration not stated),26.7 µM (inactive),–,18.4 µM (inactive),87.9 µM (inactive),22.8 µM (inactive),56.6 µM (inactive),24.8 µM (inactive),58.2 µM (inactive),> 100 µM (inactive),56.1 µM (inactive),> 100 µM (inactive),59.6 µM (inactive),57.3 µM (inactive),> 100 µM (inactive),> 100 µM (inactive),73.8 µM (inactive),–,93.3 µM (inactive),54.1 µM (inactive),36 µM (inactive)
COC(=O)c1cc(C(=O)OC)cc(-c2ccc3c(c2)-c2nc4c(c(-c5ccc(OC)cc5)c2CC3)CCc2ccc(-c3cc(C(=O)OC)cc(C(=O)OC)c3)cc2-4)c1,–,–,> 100 µM (inactive),16 µM (inactive),–,> 100 µM (inactive),> 100 µM (inactive),> 100 µM (inactive),> 100 µM (inactive),> 100 µM (inactive),> 100 µM (inactive),> 100 µM (inactive),> 100 µM (inactive),–,> 100 µM (inactive),> 100 µM (inactive),> 100 µM (inactive),> 100 µM (inactive),> 100 µM (inactive),> 100 µM (inactive)
N#CCC1C2CC3C(C2=O)C13 (configuration not stated),–,> 100 µM (inactive),> 100 µM (inactive),> 100 µM (inactive),> 100 µM (inactive),> 100 µM (inactive),> 100 µM (inactive),> 100 µM (inactive),> 100 µM (inactive),> 100 µM (inactive),> 100 µM (inactive),> 100 µM (inactive),> 100 µM (inactive),> 100 µM (inactive),> 100 µM (inactive),> 100 µM (inactive),> 100 µM (inactive),> 100 µM (inactive),> 100 µM (inactive),> 100 µM (inactive)
Cc1ccc(O)c(-c2cc(-c3cccc(Br)c3)on2)c1,27 µM (inactive),26.9 µM (inactive),48.8 µM (inactive),35.8 µM (inactive),20.8 µM (inactive),28.2 µM (inactive),13.2 µM (inactive),21.5 µM (inactive),35.6 µM (inactive),21.7 µM (inactive),21.3 µM (inactive),30.1 µM (inactive),32.6 µM (inactive),14.5 µM (inactive),22.2 µM (inactive),22.4 µM (inactive),–,11.6 µM (inactive),23.8 µM (inactive),17 µM (inactive)
COc1cc2c(/C=C3/C(=O)Nc4ccccc43)c(Cl)[nH]c2cc1C,0.035 µM (active),0.0583 µM (active),1.52 µM (inactive),0.129 µM (active),0.118 µM (active),13.7 µM (inactive),0.0502 µM (active),0.082 µM (active),0.0923 µM (active),0.0141 µM (active),0.0314 µM (active),0.0893 µM (active),–,0.034 µM (active),1.43 µM (inactive),0.0861 µM (active),0.373 µM (active),0.0521 µM (active),9.12 µM (inactive),0.041 µM (active)
O=C(c1ccccc1)n1cc(-c2ccccc2)c2c(=O)nc[nH]c21,–,> 100 µM (inactive),> 100 µM (inactive),> 100 µM (inactive),> 100 µM (inactive),> 100 µM (inactive),> 100 µM (inactive),> 100 µM (inactive),> 100 µM (inactive),> 100 µM (inactive),> 100 µM (inactive),> 100 µM (inactive),> 100 µM (inactive),> 100 µM (inactive),> 100 µM (inactive),> 100 µM (inactive),> 100 µM (inactive),> 100 µM (inactive),> 100 µM (inactive),> 100 µM (inactive)

# Reference: ChEMBL document CHEMBL1201862, “PubChem BioAssay data set” (2004)
